Article PMC12521730, “Quantitative dual-isotope preclinical SPECT/CT imaging and biodistribution of the mercury-197m/g theranostic pair with [^197m/gHg]HgCl2 and a [^197m/gHg]Hg-tetrathiol complex as a platform for radiopharmaceutical development” (EJNMMI Radiopharmacy and Chemistry, 2025)

Assay: Ex vivo biodistribution (gamma counter)
Assay type: in vivo, healthy male C57BL/6 mice
Settings: Hg-197g, 2 h post administration
Protocol: For animal injection, the tracer was prepared at high molar activity. Radiolabeling of H4Tetrathiol (10^–2 M in DMSO; 40 μL for imaging, 20 μL for bioD) (or DMSO, for [^197m/gHg]HgCl2 mice) with [^197m/gHg]HgCl2 (imaging: 26.7 MBq total m + g, 62 μL; bioD: 13.04 MBq total m + g, 31 μL) was performed in a mixture of ammonium acetate buffer (1 M; pH 7; 198 μL for imaging or 149 μL for bioD) and 6 M NaOH (72 μL or 38 μL required to achieve a pH of 7.5 after addition of activity, for imaging or BioD labeling, respectively). The reaction was allowed to stand for 1 h at 37 °C and quantitative (> 99%) non-isolated percentage radiochemical yield (%RCY) was confirmed via the iTLC methods mentioned above. Further, 100 µL of the reaction was diluted with 50 µL of PBS Tween-20 (0.01 M sodium phosphate, 0.15 M NaCl, 0.05% Tween-20) for imaging mice, or 50 µL of the reaction was diluted with 100 µL of PBS Tween-20 for BioD mice. The tracers were prepared immediately before injection to avoid radiolysis and minimize the tracer loss to any surfaces due to its lipophilicity. The injected doses of each isomer, ^197mHg and ^197gHg, were quantified by measuring an aliquot of known volume of each tracer preparation via HPGe gamma spectroscopy and decay corrected for time of injection using the Eqs. (1) and (2).
The study was conducted in compliance with the guidelines set by the Canadian Council on Animal Care (CCAC) and approved by the Animal Care Committee (ACC) at the University of British Columbia (A20-0132). A total of eight healthy male C57BL/6 mice weighing approximately 30 g for group 1 and 25 g for group 2 were used in the study. The mice were divided into two experimental groups: group 1 (n = 4) received free [^197m/gHg]HgCl2, while group 2 (n = 4) received [^197m/gHg]Hg-Tetrathiol. Within each group, one mouse was allocated for imaging, while the rest were designated for ex vivo biodistribution analysis. For SPECT imaging, the designated mice were anesthetized using isoflurane via a precision vaporizer. […] Once anesthetized, each imaging mouse received an intravenous (IV) injection via the lateral tail vein of 150 μL of [^197m/gHg]HgCl2 (0.492 MBq ^197mHg + 3.171 MBq ^197gHg) or [^197m/gHg]Hg-Tetrathiol (0.899 MBq ^197mHg + 4.230 MBq ^197gHg) in PBS Tween-20 (0.01 M Na Phosphate, 0.15 M NaCl, 0.05% Tween-20).
Mice received an IV injection of [^197m/gHg]HgCl2 (0.275 MBq ^197mHg + 1.758 MBq ^197gHg, 150 μL) or [^197m/gHg]Hg-Tetrathiol (0.384 MBq ^197mHg + 1.733 MBq ^197gHg, 150 μL) (n = 3 per group) via the lateral tail vein using a Tailveiner restrainer. After the injection, the mice were returned to their experimental cages and allowed unrestricted movement. Biodistribution studies were conducted 2 h after administration. Mice were humanely euthanized with an overdose of isoflurane followed by cardiac puncture to collect blood pool activity. The organs of interest were fully extracted, cleaned of blood without rinsing, weighed, and analysed for radioactivity using a calibrated gamma counter with the 55–93 keV energy window for ^197gHg and the 110–160 keV energy window for ^197mHg (Packard Cobra II, Perkin Elmer, Waltham, MA, USA). The stomach and intestines were carefully cleaned prior to analysis to remove residual contents. For tissues and fluids that could not be fully removed (muscle, blood and bone) activity values were extrapolated based on standardised organ weights for age- and sex-matched mice tables to ensure accurate normalization (Davies and Morris [1993]; Foster et al. [2014]). The stomach and whole intestines were cleaned before analysis. The radioactivity measurements were decay corrected for time of injection using the Eqs. (1) and (2). The results are reported as the percentage of the injected activity per gram of tissue (%IA/g) and percentage of the injected activity per tissue (%IA/organ).

Structure (SMILES): [Cl][Hg][Cl] [[^197m/gHg]HgCl2]
- Animal 1 (%IA/Organ): bladder: 0.10 %IA/Organ
- Animal 1 (%IA/Organ): blood: 7.19 %IA/Organ
- Animal 1 (%IA/Organ): bone: 4.96 %IA/Organ
- Animal 1 (%IA/Organ): brain: 0.08 %IA/Organ
- Animal 1 (%IA/Organ): feces: 0.04 %IA/Organ
- Animal 1 (%IA/Organ): heart: 0.39 %IA/Organ
- Animal 1 (%IA/Organ): kidneys: 51.84 %IA/Organ
- Animal 1 (%IA/Organ): large intestine: 0.85 %IA/Organ
- Animal 1 (%IA/Organ): liver: 11.53 %IA/Organ
- Animal 1 (%IA/Organ): lungs: 0.87 %IA/Organ
- Animal 1 (%IA/Organ): muscle: 12.34 %IA/Organ
- Animal 1 (%IA/Organ): pancreas: 0.32 %IA/Organ
- Animal 1 (%IA/Organ): small intestine: 0.99 %IA/Organ
- Animal 1 (%IA/Organ): spleen: 0.47 %IA/Organ
- Animal 1 (%IA/Organ): stomach: 0.29 %IA/Organ
- Animal 1 (%IA/Organ): tail: 4.00 %IA/Organ
- Animal 1 (%IA/Organ): urine: 1.57 %IA/Organ
- Animal 1 (%IA/g) g: bladder: 1.28 %IA/g
- Animal 1 (%IA/g) g: blood: 4.25 %IA/g
- Animal 1 (%IA/g) g: bone: 2.26 %IA/g
- Animal 1 (%IA/g) g: brain: 0.19 %IA/g
- Animal 1 (%IA/g) g: feces: 0.96 %IA/g
- Animal 1 (%IA/g) g: heart: 2.62 %IA/g
- Animal 1 (%IA/g) g: kidneys: 110 %IA/g
- Animal 1 (%IA/g) g: large intestine: 3.42 %IA/g
- Animal 1 (%IA/g) g: lungs: 5.68 %IA/g
- Animal 1 (%IA/g) g: muscle: 0.94 %IA/g
- Animal 1 (%IA/g) g: pancreas: 1.76 %IA/g
- Animal 1 (%IA/g) g: small intestine: 4.46 %IA/g
- Animal 1 (%IA/g) g: spleen: 5.78 %IA/g
- Animal 1 (%IA/g) g: stomach: 2.45 %IA/g
- Animal 1 (%IA/g) g: tail: 7.68 %IA/g
- Animal 1 (%IA/g) g: urine: 5.10 %IA/g
- Animal 2 (%IA/Organ): bladder: 0.06 %IA/Organ
- Animal 2 (%IA/Organ): blood: 5.88 %IA/Organ
- Animal 2 (%IA/Organ): bone: 4.05 %IA/Organ
- Animal 2 (%IA/Organ): brain: 0.04 %IA/Organ
- Animal 2 (%IA/Organ): feces: 0.02 %IA/Organ
- Animal 2 (%IA/Organ): heart: 0.21 %IA/Organ
- Animal 2 (%IA/Organ): kidneys: 44.76 %IA/Organ
- Animal 2 (%IA/Organ): large intestine: 0.60 %IA/Organ
- Animal 2 (%IA/Organ): liver: 6.34 %IA/Organ
- Animal 2 (%IA/Organ): lungs: 0.50 %IA/Organ
- Animal 2 (%IA/Organ): muscle: 6.72 %IA/Organ
- Animal 2 (%IA/Organ): pancreas: 0.22 %IA/Organ
- Animal 2 (%IA/Organ): small intestine: 0.66 %IA/Organ
- Animal 2 (%IA/Organ): spleen: 0.25 %IA/Organ
- Animal 2 (%IA/Organ): stomach: 0.18 %IA/Organ
- Animal 2 (%IA/Organ): tail: 2.34 %IA/Organ
- Animal 2 (%IA/Organ): urine: 0.04 %IA/Organ
- Animal 2 (%IA/g) g: bladder: 2.73 %IA/g
- Animal 2 (%IA/g) g: blood: 3.53 %IA/g
- Animal 2 (%IA/g) g: bone: 1.87 %IA/g
- Animal 2 (%IA/g) g: brain: 0.10 %IA/g
- Animal 2 (%IA/g) g: feces: 0.42 %IA/g
- Animal 2 (%IA/g) g: heart: 1.60 %IA/g
- Animal 2 (%IA/g) g: kidneys: 107 %IA/g
- Animal 2 (%IA/g) g: large intestine: 2.61 %IA/g
- Animal 2 (%IA/g) g: liver: 5.13 %IA/g
- Animal 2 (%IA/g) g: lungs: 3.11 %IA/g
- Animal 2 (%IA/g) g: muscle: 0.52 %IA/g
- Animal 2 (%IA/g) g: pancreas: 1.31 %IA/g
- Animal 2 (%IA/g) g: small intestine: 2.72 %IA/g
- Animal 2 (%IA/g) g: spleen: 3.43 %IA/g
- Animal 2 (%IA/g) g: stomach: 1.70 %IA/g
- Animal 2 (%IA/g) g: tail: 4.62 %IA/g
- Animal 2 (%IA/g) g: urine: 3.81 %IA/g
- Animal 3 (%IA/Organ): bladder: 0.03 %IA/Organ
- Animal 3 (%IA/Organ): blood: 5.49 %IA/Organ
- Animal 3 (%IA/Organ): bone: 3.89 %IA/Organ
- Animal 3 (%IA/Organ): brain: 0.05 %IA/Organ
- Animal 3 (%IA/Organ): feces: 0.09 %IA/Organ
- Animal 3 (%IA/Organ): heart: 0.20 %IA/Organ
- Animal 3 (%IA/Organ): kidneys: 46.92 %IA/Organ
- Animal 3 (%IA/Organ): large intestine: 0.43 %IA/Organ
- Animal 3 (%IA/Organ): liver: 6.61 %IA/Organ
- Animal 3 (%IA/Organ): lungs: 0.50 %IA/Organ
- Animal 3 (%IA/Organ): muscle: 6.84 %IA/Organ
- Animal 3 (%IA/Organ): pancreas: 0.25 %IA/Organ
- Animal 3 (%IA/Organ): small intestine: 0.62 %IA/Organ
- Animal 3 (%IA/Organ): spleen: 0.22 %IA/Organ
- Animal 3 (%IA/Organ): stomach: 0.18 %IA/Organ
- Animal 3 (%IA/Organ): tail: 2.23 %IA/Organ
- Animal 3 (%IA/Organ): urine: 0.63 %IA/Organ
- Animal 3 (%IA/g) g: bladder: 1.50 %IA/g
- Animal 3 (%IA/g) g: blood: 3.33 %IA/g
- Animal 3 (%IA/g) g: bone: 1.79 %IA/g
- Animal 3 (%IA/g) g: brain: 0.11 %IA/g
- Animal 3 (%IA/g) g: feces: 2.78 %IA/g
- Animal 3 (%IA/g) g: heart: 1.46 %IA/g
- Animal 3 (%IA/g) g: kidneys: 108 %IA/g
- Animal 3 (%IA/g) g: large intestine: 2.41 %IA/g
- Animal 3 (%IA/g) g: liver: 4.96 %IA/g
- Animal 3 (%IA/g) g: lungs: 3.44 %IA/g
- Animal 3 (%IA/g) g: muscle: 0.53 %IA/g
- Animal 3 (%IA/g) g: pancreas: 1.39 %IA/g
- Animal 3 (%IA/g) g: small intestine: 2.89 %IA/g
- Animal 3 (%IA/g) g: spleen: 2.94 %IA/g
- Animal 3 (%IA/g) g: stomach: 1.57 %IA/g
- Animal 3 (%IA/g) g: tail: 4.40 %IA/g
- Animal 3 (%IA/g) g: urine: 3.90 %IA/g
- Animal 4 (%IA/Organ): bladder: 0.07 %IA/Organ
- Animal 4 (%IA/Organ): blood: 4.67 %IA/Organ
- Animal 4 (%IA/Organ): bone: 3.74 %IA/Organ
- Animal 4 (%IA/Organ): brain: 0.05 %IA/Organ
- Animal 4 (%IA/Organ): feces: 0.07 %IA/Organ
- Animal 4 (%IA/Organ): heart: 0.21 %IA/Organ
- Animal 4 (%IA/Organ): kidneys: 49.72 %IA/Organ
- Animal 4 (%IA/Organ): large intestine: 0.41 %IA/Organ
- Animal 4 (%IA/Organ): liver: 6.62 %IA/Organ
- Animal 4 (%IA/Organ): lungs: 0.46 %IA/Organ
- Animal 4 (%IA/Organ): muscle: 6.43 %IA/Organ
- Animal 4 (%IA/Organ): pancreas: 0.20 %IA/Organ
- Animal 4 (%IA/Organ): small intestine: 0.54 %IA/Organ
- Animal 4 (%IA/Organ): spleen: 0.32 %IA/Organ
- Animal 4 (%IA/Organ): stomach: 0.17 %IA/Organ
- Animal 4 (%IA/Organ): tail: 1.77 %IA/Organ
- Animal 4 (%IA/Organ): urine: 0.38 %IA/Organ
- Animal 4 (%IA/g) g: bladder: 2.90 %IA/g
- Animal 4 (%IA/g) g: blood: 3.00 %IA/g
- Animal 4 (%IA/g) g: bone: 1.85 %IA/g
- Animal 4 (%IA/g) g: brain: 0.12 %IA/g
- Animal 4 (%IA/g) g: feces: 1.01 %IA/g
- Animal 4 (%IA/g) g: heart: 1.49 %IA/g
